{"source": "patent US20220323390A1", "about": "“DIETARY SUPPLEMENT TO PROMOTE GUT HEALTH” (TERRAGENICS NUTRITION, INC., priority 2019, published 2022)", "type_in_all_cases": "cell-based, human", "key": {"mucin-3": {"test_system": "mucin-3", "experiment": "qPCR gene expression of mucin-3 in Caco-2/HT29-MTX co-culture", "details": "48 h; compared to the TNFα/IFNγ control", "method": "(§1) Caco-2/HT29-MTX monolayers were cultured for 14 days, with three medium changes/week, until a functional cell monolayer with a transepithelial electrical resistance (TEER) was obtained. Cells were maintained in Dulbecco's Modified Eagle Medium (DMEM) containing glucose and glutamine and supplemented with HEPES and 20% (v/v) heat-inactivated (HI) fetal bovine serum (FBS). Before treatment, the TEER of the Caco-2/HT29-MTX monolayers was measured (0 h time point). The TEER of an empty insert was subtracted from all readings to account for the residual electrical resistance of an insert. The apical compartment (containing the Caco-2/HT29-MTX cells) was filled with sterile-filtered (0.22 μm) colonic batch suspensions. […] Cells were treated for 48 h and the TEER was measured at 24 h (=24 h time point) and 48 h (=48 h time point). […]\n(§2) After 48 h, cells were lysed in RNA lysis buffer, centrifuged and the […] collected. qPCR is performed for tight junction genes (claudin-1, -2, -3 and -4, and occludin) and mucin genes (mucin 3); 2 housekeeping genes were Included. […] Mucins can be measured as disclosed for example in Leteutre, E. et al, Biology of the Cell 96 (2004) 145-151. Mucin turnover can be assessed as described for example in Schneider, H. et al, Nature Scientific Reports | (2018) 8:5760 | DOI:10.1038/s41598-018-24148-x. […]"}, "claudin-1": {"test_system": "claudin-1", "experiment": "qPCR gene expression of claudin-1 in Caco-2/HT29-MTX co-culture", "details": "48 h; compared to the TNFα/IFNγ control", "method": "as §1, §2"}, "claudin-4": {"test_system": "claudin-4", "experiment": "qPCR gene expression of claudin-4 in Caco-2/HT29-MTX co-culture", "details": "48 h; compared to the TNFα/IFNγ control", "method": "as §1, §2"}, "[1]": {"test_system": "Caco-2/HT29-MTX co-cultures", "experiment": "Transepithelial electrical resistance (TEER) of TNFα/IFNγ-treated co-cultures given colonic batch samples", "details": "TNFα/IFNγ stimulation", "source_text": "Caco-2, when seeded on suitable supports, spontaneously differentiate Into mature enterocyte-like cells, characterized by polarization, presence of villi, formation of domes, presence of tight junctions and vectorial transport and expression of apical brush-border enzymes (reviewed by Sambuy, Y., et al. (2005) Cell Biology and Toxicology. 21: 1-26). The mucus layer is mimicked by co-culturing Caco-2 cells with HT29-MTX cells, a mucin producing human cell line. This model is considered a useful in vitro intestinal model.\nBarrier function was evaluated by measuring TEER and expression of tight junction and mucin genes in the co-culture model using TNF alpha/IFN gamma as an inflammatory insult. Inulin and sodium butyrate were used as positive controls. The test products were administered at three different concentrations. […]\nCaco-2/HT29-MTX monolayers were cultured for 14 days, with three medium changes/week, until a functional cell monolayer with a transepithelial electrical resistance (TEER) was obtained. […] Before treatment, the TEER of the Caco-2/HT29-MTX monolayers was measured (0 h time point). The TEER of an empty insert was subtracted from all readings to account for the residual electrical resistance of an insert. […] Cells were treated for 48 h and the TEER was measured at 24 h (=24 h time point) and 48 h (=48 h time point). […]\nTEER was measured again at 24 h and 48 h of incubation. […]"}, "claudin-3": {"test_system": "claudin-3", "experiment": "qPCR gene expression of claudin-3 in Caco-2/HT29-MTX co-culture", "details": "48 h; compared to the TNFα/IFNγ control", "method": "as §1, §2"}, "claudin-2": {"test_system": "claudin-2", "experiment": "qPCR gene expression of claudin-2 in Caco-2/HT29-MTX co-culture", "details": "48 h; compared to the TNFα/IFNγ control", "method": "as §1, §2"}, "occludin": {"test_system": "occludin", "experiment": "qPCR gene expression of occludin in Caco-2/HT29-MTX co-culture", "details": "48 h; compared to the TNFα/IFNγ control", "method": "as §1, §2"}}}
{"smiles": "CCCC(=O)[O-].[Na+]", "note": "[Sodium butyrate]", "values": [{"measurement": "expression of mucin-3", "setting": "mucin-3", "result": "strongly increased the expression"}, {"measurement": "expression of claudin-1", "setting": "claudin-1", "result": "No effect"}, {"measurement": "expression of claudin-4", "setting": "claudin-4", "result": "increased the expression"}, {"measurement": "decrease in TEER", "setting": "[1]; 24 h of incubation", "result": "approximately 80%"}, {"measurement": "TEER relative to initial value", "setting": "[1]; 48 h of incubation", "result": "increased the TEER above its initial value"}, {"measurement": "expression of claudin-3", "setting": "claudin-3", "result": "increased the expression"}, {"measurement": "expression of claudin-2", "setting": "claudin-2", "result": "decreased the expression"}, {"measurement": "expression of occludin", "setting": "occludin", "result": "increased the expression"}]}
